Assay results published in PMC9525908, “α-Crystallin chaperone mimetic drugs inhibit lens γ-crystallin aggregation: Potential role for cataract prevention” (The Journal of Biological Chemistry, 2022).
“Also recorded” adds a separate entry of the source.

Experiments:
HγD-ox = molecular target: T1, HγD-ox (Homo sapiens, UniProt P07320); test: Turbidity (600 nm) of oxidized HγD heated 10 min at 72 °C; format: biochemical; settings: 1.4 mg/ml with DTPA, 100 and 500 μM bis-ANS, 100 μM drug C, 500 μM drug M
T1 construct: made in house; host or cells: Escherichia coli BL21(DE3) pLysS, pET3d vector
T1 sequence (P07320 1-174): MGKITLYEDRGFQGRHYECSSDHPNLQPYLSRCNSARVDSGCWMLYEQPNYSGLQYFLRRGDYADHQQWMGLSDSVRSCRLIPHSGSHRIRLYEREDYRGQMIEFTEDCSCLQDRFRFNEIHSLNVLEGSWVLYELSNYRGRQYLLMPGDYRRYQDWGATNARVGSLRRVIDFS
Text: In postsubmission experiments, we attempted to find mechanistic clues relevant to the use of an H2O2 oxidation step prior to the thermal stress used during the initial drug screen. For this reason, we did a comparative study of oxidized (HγD-ox) versus native HγD (HyD-nat), hypothesizing that bis-ANS would both act like the drugs and provide information on the role of exposed hydrophobicity ([40]). HγD was oxidized in diethylenetriaminepentaacetic acid […] phosphate buffer to facilitate hydroxyl radical formation and protein damage, followed by dialysis against DTPA-treated buffer to eliminate the known proaggregating effects of divalent metals ([32]) in the subsequent steps. […] Overall protective effects were more pronounced for the oxidized than nonoxidized form of HγD. […] In the hope to obtain clues on the impact of bis-ANS, drugs C, G, and M on protein aggregation status, native PAGE was performed (Fig. 3G). Polymers greater than 250 kD are present in unheated HγD-nat but only the size of 75 to 100 kD in HγD-ox. […] Other techniques will be needed to assess the relationship between drugs and aggregate size.

MγS = molecular target: T2, MγS (Mus musculus, UniProt O35486); test: Steady-state tryptophan fluorescence quenching, MγS; format: binding
T2 construct: made in house; host or cells: E. coli BL21(DE3) pLysS, pET17b vector
T2 sequence (O35486 1-178): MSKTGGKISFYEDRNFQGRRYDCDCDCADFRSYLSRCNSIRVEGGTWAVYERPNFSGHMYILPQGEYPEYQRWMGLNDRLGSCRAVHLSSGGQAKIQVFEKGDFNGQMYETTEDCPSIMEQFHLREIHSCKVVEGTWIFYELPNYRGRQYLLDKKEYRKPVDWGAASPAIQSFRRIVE
Experimental: Tryptophan fluorescence can be used for studying conformational changes resulting from protein–drug interactions ([44]). Fluorescence quenching of aromatic fluorophores in HγD and MγS by drugs C and G at three different temperatures (25, 30, and 37 °C) was studied in the presence of varying concentrations of drug C and G (0–250 μM). As shown in Figs. S5A and S6A, both HγD and MγS have a strong emission peak at 330 nm when excited at 295 nm. In both cases, quenching occurs with gradual addition of C and G at all three temperatures. Overall, quenching of Trp fluorescence emission is at highest at 25 °C (Figs. S5A and S6A) followed by 30 °C and lowest at 37 °C. […] The slope of plot Fo/F versus [Q] gives Ksv (Figs. S5B and S6B), whereas Kb is obtained from intercept of plot log (Fo/F − 1) versus log[Q] (Figs. S5C and S6C). […] For drug M, Kb values are of the order 10^2 M^−1 only. Fluorescence quenching can be either because of random collision between the molecules (dynamic interaction) or because of actual affinity between a protein pocket and drug (static interaction). Dynamic interactions are weaker and nonspecific in nature, whereas static interactions are stronger and more specific ([47]). For more information on the type of interaction, Kq was calculated and compared with the standard value of 2 × 10^10 M^−1s^−1, which is the maximum scatter collision quenching constant of various quenchers with biopolymers ([48]). […] Furthermore, the differential response of Ksv toward temperature change also clarifies the type of quenching. In static quenching, Ksv decreases with an increase in temperature because of the formation of complex with protein, which undergoes dissociation on increasing temperature.
To gauge the strength of the major forces involved in drug–protein complex formation, change in free energy was calculated using Gibbs–Helmholtz equation (Equation 3).(3) ΔG=-RTlnKb ([50]) where, R is gas constant and its value is […], T is absolute temperature (Kelvin) and Kb is binding constant whose value is already calculated using Equation 2. […] Free energy changes are negative at all three temperatures, being maximal at 25 °C. For C, G, and M interaction with HγD, ΔG values were −6.4, −7.9, and −1.9 kcal/mol (at 25 °C), that is, similar to those obtained by molecular docking as described later. These values also reflect the fact that drug M had the least protective effect on unfolding or aggregation of various γ-crystallins (Figs. 2 and S4).
All the steady-state fluorescence measurements were recorded on Fluoromax Spectrofluorometer (Horiba Scientific). For fluorescence quenching measurements, 10 μM of both HγD and MγS crystallins were titrated with varying concentrations of drugs C, G, and M (0–250 μM) at 25, 30, and 37 °C. These samples were excited at 295 nm, and the fluorescence emission was collected from 310 to 410 nm.

WT-HγD crystallin = molecular target: T3, WT-HγD crystallin (Homo sapiens, UniProt P07320); test: Dynamic light scattering of thermally stressed WT-HγD; format: biochemical; settings: for Size (radius) of aggregates: 50 μM WT-HγD, 400 μM drug, 72 °C 20 min, 7261 nm without drugs
T3 construct: made in house; host or cells: E. coli BL21(DE3) pLysS, pET3d vector
T3 sequence (P07320 1-174): T1 sequence (P07320 1-174)
Experimental: Efficacy of our selected drugs in preventing the formation of protein aggregates was measured by DLS. Measurements were performed on a Wyatt DynaPro Nanostar. For DLS temperature scan experiment, pure and filtered protein samples (1 mg/ml in 10 mM sodium phosphate buffer, pH 7.2) with and without drugs (400 μM) were analyzed by DLS over a temperature range of 30 to 90 °C. Multiple scans were run for every data point, and the results represent average of individual scans. DLS spectra were also recorded for the samples at the end point of turbidity assay.

[1] = WT-HγD, end point of thermal stress 72 °C 20 min

Percent Mass Peak 2 (WT-HγD crystallin; [1]) [%] | Radius (nm) Peak 2 (WT-HγD crystallin; [1]) [nm] | SMILES | Effect on aggregation/turbidity of HγD-ox (HγD-ox) | KSV (MγS; 25 °C) [M^−1 ×10^3] | Kq (MγS; 25 °C) [M^−1 s^−1 ×10^12] | ΔG (MγS; 25 °C) [kcalM^−1] | KSV (MγS; 30 °C) [M^−1 ×10^3] | Kq (MγS; 30 °C) [M^−1 s^−1 ×10^12] | ΔG (MγS; 30 °C) [kcalM^−1] | KSV (MγS; 37 °C) [M^−1 ×10^3] | Kq (MγS; 37 °C) [M^−1 s^−1 ×10^12] | ΔG (MγS; 37 °C) [kcalM^−1] | Size (radius) of aggregates (WT-HγD crystallin) [nm] | Percent Mass Peak 1 (WT-HγD crystallin; [1]) [%] | Radius (nm) Peak 1 (WT-HγD crystallin; [1]) [nm]
– | – | Cc1cc(C(C#N)c2ccc(Cl)cc2)c(Cl)cc1NC(=O)c1cc(I)cc(I)c1O (centres unmarked) [drug C, Closantel] | strongly suppressed | 4.828 | 0.847 | −7.0 | 4.249 | 0.745 | −6.2 | 2.988 | 0.524 | −4.1 | 30.5 | 100 | 30.5
– | – | CC(C)=CCC[C@]1(C)C=Cc2c(O)c3c(c(CC=C(C)C)c2O1)O[C@]12C(=C[C@@H]4C[C@H]1C(C)(C)O[C@@]2(C/C=C(/C)C(=O)O)C4=O)C3=O [drug G, Gambogic acid] | – | 7.283 | 1.37 | – | 8.034 | 1.4 | −5.6 | 4.905 | 0.86 | −6.5 | 84.9 | 100 | 84.9
87.3 | 568.5 | O=C(O)CCCCCCCCCCCC[C@@H]1C=CCC1 [drug M, Chaulmoogric acid] | strongly suppressed; also recorded: protected oxidized HγD | 0.793 | 0.14 | −2.7 | 0.733 | 0.13 | −2.6 | 0.491 | – | −2.2 | 569 | 12.7 | 10.9
